Measurements as given in patent US6429208B1, “Methods and compositions for restoring impaired cellular immune function” (Regents of the University of California, priority 1992, dated 2002).

Assays:
[1] = system: PBMC from HIV seropositive donors; assay: Immunoglobulin / anti-HIV antibody production by PBMC from HIV seropositive donors; type: cell-based, human; conditions: 10 days
Procedure: Immunoglobulin production by B-cells is regulated by T-cells; CD4 provides “help” for de novo synthesis and CD8 suppresses immunoglobulin production. In HIV infection, increased total immunoglobulin production with a decrease in certain specific HIV antibodies to HIV GAG proteins during infection is a common finding (Lange, et al. AIDS (1987) 1:155-9). In this experiment, 10^6 PBMC from HIV seropositive donors were incubated in 1 ml cultures with and without ddAdo (1-100 ng/ml) for 10 days. IgG and anti-HIV antibodies in supernatant were measured by ELISA. p24 binding capacity was measured with a kit from DuPont following the manufacturer's protocol. Addition of ddAdo to cultures of PBMC from HIV seropositive subjects restored production of specific antibodies to p24 (Table 3). An effect of ddAdo on T-cells has been shown above but a possible direct effect on B-cells cannot be ruled out.
Addition of ddAdo to cultures of PBMC from HIV seropositive subjects increased spontaneous anti-p24 antibodies in individuals with none/low spontaneous production (p24 is an HIV core protein). One million PBMC from HIV seropositive donors were incubated in 1 ml cultures with and without ddAdo (1-100 ng/ml) for 10 days. IgG10 and production of anti-HIV antibodies to p24 in supernatants were measured by ELISA. p24 binding capacity was measured with a kit from DuPont (Delaware) following the manufacturer's protocol.

[2] = Personal Communication; cited from earlier work

## C[C@H]1O[C@@H](n2cnc3c(N)ncnc32)C[C@@H]1O [ddAdo, 2′,5′ dideoxyadenosine]
[1]; Patient 1, none 0
  p24 Binding Capacity: 14 pg/mL
[1]; Patient 1, none 326
  IgG: 367 µg/mL
[1]; Patient 1, none .5910
  Anti-HIV Ab: .5300 OD
[1]; Patient 2, none 0
  p24 Binding Capacity: 16 pg/mL
[1]; Patient 2, none 98
  IgG: 89 µg/mL
[1]; Patient 2, none .1320
  Anti-HIV Ab: .1940 OD
[1]; Patient 3, none 0
  p24 Binding Capacity: 88 pg/mL
[1]; Patient 3, none 1.1390
  Anti-HIV Ab: 1.0820 OD
[1]; Patient 3, none 366
  IgG: 309 µg/mL
[1]; Patient 4, none 25
  p24 Binding Capacity: 49 pg/mL
[1]; Patient 4, none 123
  IgG: 142 µg/mL
[1]; Patient 4, none .2000
  Anti-HIV Ab: .1640 OD
[1]; Patient 5, none 41
  p24 Binding Capacity: 32 pg/mL
[1]; Patient 5, none 55
  IgG: 192 µg/mL
[1]; Patient 5, none .1480
  Anti-HIV Ab: .1360 OD
[1]; Patient 6, none 60
  p24 Binding Capacity: 50 pg/mL
[1]; Patient 6, none 76
  IgG: 80 µg/mL
[1]; Patient 6, none .0330
  Anti-HIV Ab: .0330 OD
[1]; Patient 7, none 244
  IgG: 145 µg/mL
[1]; Patient 7, none 376
  p24 Binding Capacity: 418 pg/mL
[1]; Patient 7, none .0570
  Anti-HIV Ab: .2990 OD
[1]; Patient 8, none 143
  IgG: 170 µg/mL
[1]; Patient 8, none 1540
  p24 Binding Capacity: 1560 pg/mL
[1]; Patient 8, none .4860
  Anti-HIV Ab: .3900 OD
[2]
  Antiviral effect: no antiviral effect
